Assay results: ChEMBL document CHEMBL3045519, “Selective Herbicidal Activity of 3, 5-Dichloropyridyloxy-phenoxypropionamidoxyacetic Acid Derivatives between Wheat and Wild Oat” (J Pestic Sci, 1996)
Activity calls are given as the source filed them. No cut-off for these calls is given here.

What was measured:
Triticum aestivum [1] = assay: Phytotoxicity against Triticum aestivum (wheat) under greenhouse conditions at 2.5 g/a at 1.5-leaf stage measured after 3 weeks by pot test; type: organism-based; settings: in vivo, 504 h
Triticum aestivum [2] = assay: Phytotoxicity against Triticum aestivum (wheat) under greenhouse conditions at 1.3 g/a at 1.5-leaf stage measured after 3 weeks by pot test; type: organism-based; settings: in vivo, 504 h
Triticum aestivum [3] = assay: Phytotoxicity against Triticum aestivum (wheat) under greenhouse conditions at 0.6 g/a at 1.5-leaf stage measured after 3 weeks by pot test; type: organism-based; settings: in vivo, 504 h
Triticum aestivum [4] = assay: Phytotoxicity against Triticum aestivum (wheat) under greenhouse conditions at 0.3 g/a at 1.5-leaf stage measured after 3 weeks by pot test; type: organism-based; settings: in vivo, 504 h
Avena fatua [5] = assay: Post-emergence herbicidal activity against Avena fatua under greenhouse conditions at 0.3 g/a at 1.5-leaf stage measured after 3 weeks by pot test; type: functional, organism-based
Avena fatua [6] = assay: Post-emergence herbicidal activity against Avena fatua under greenhouse conditions at 2.5 g/a at 1.5-leaf stage measured after 3 weeks by pot test; type: functional, organism-based
Avena fatua [7] = assay: Post-emergence herbicidal activity against Avena fatua under greenhouse conditions at 1.3 g/a at 1.5-leaf stage measured after 3 weeks by pot test; type: functional, organism-based
Avena fatua [8] = assay: Post-emergence herbicidal activity against Avena fatua under greenhouse conditions at 0.6 g/a at 1.5-leaf stage measured after 3 weeks by pot test; type: functional, organism-based
Triticum aestivum [9] = assay: Phytotoxicity against Triticum aestivum (wheat) under greenhouse conditions at 40 g/a at 1.5-leaf stage measured after 3 weeks by pot test; type: organism-based; settings: in vivo, 504 h
Avena fatua [10] = assay: Post-emergence herbicidal activity against Avena fatua under greenhouse conditions at 40 g/a at 1.5-leaf stage measured after 3 weeks by pot test; type: functional, organism-based
Triticum aestivum [11] = assay: Phytotoxicity against Triticum aestivum (wheat) under greenhouse conditions at 5 g/a at 1.5-leaf stage measured after 3 weeks by pot test; type: organism-based; settings: in vivo, 504 h
Triticum aestivum [12] = assay: Phytotoxicity against Triticum aestivum (wheat) under greenhouse conditions at 10 g/a at 1.5-leaf stage measured after 3 weeks by pot test; type: organism-based; settings: in vivo, 504 h
Avena fatua [13] = assay: Post-emergence herbicidal activity against Avena fatua under greenhouse conditions at 10 g/a at 1.5-leaf stage measured after 3 weeks by pot test; type: functional, organism-based
Avena fatua [14] = assay: Post-emergence herbicidal activity against Avena fatua under greenhouse conditions at 5 g/a at 1.5-leaf stage measured after 3 weeks by pot test; type: functional, organism-based

Structure (SMILES)	Activity (Triticum aestivum [1])	Activity (Triticum aestivum [2])	Activity (Triticum aestivum [3])	Activity (Triticum aestivum [4])	Activity (Avena fatua [5])	Activity (Avena fatua [6])	Activity (Avena fatua [7])	Activity (Avena fatua [8])	Activity (Triticum aestivum [9])	Activity (Avena fatua [10])	Activity (Triticum aestivum [11])	Activity (Triticum aestivum [12])	Activity (Avena fatua [13])	Activity (Avena fatua [14])
CC(Oc1ccc(Oc2ncc(Cl)cc2Cl)cc1)C(=O)NN (stereo not given)	Non-toxic	Non-toxic	Non-toxic	Non-toxic	inactive	inactive	inactive	inactive	–	–	–	–	–	–
CC(Oc1ccc(Oc2ncc(Cl)cc2Cl)cc1)C(=O)N(C)C (stereo not given)	–	–	–	–	–	–	–	–	Non-toxic	inactive	–	–	–	–
CC(Oc1ccc(Oc2ncc(Cl)cc2Cl)cc1)C(=O)N(C)OCC(=O)O (stereo not given)	Non-toxic	Non-toxic	Non-toxic	Non-toxic	inactive	Active	Active	inactive	–	–	–	–	–	–
COC(=O)CNC(=O)C(C)Oc1ccc(Oc2ncc(Cl)cc2Cl)cc1 (stereo not given)	Non-toxic	Non-toxic	Non-toxic	Non-toxic	Active	Active	Active	Active	–	–	–	–	–	–
CC(Oc1ccc(Oc2ncc(Cl)cc2Cl)cc1)C(=O)NCCC(=O)O (stereo not given)	Non-toxic	Non-toxic	Non-toxic	Non-toxic	inactive	Active	Active	inactive	–	–	–	–	–	–
CNC(=O)C(C)Oc1ccc(Oc2ncc(Cl)cc2Cl)cc1 (stereo not given)	Non-toxic	Non-toxic	Non-toxic	Non-toxic	inactive	inactive	inactive	inactive	–	–	–	–	–	–
CC(Oc1ccc(Oc2ccc(C(F)(F)F)cn2)cc1)C(=O)O (stereo not given) [FLUAZIFOP]	Toxic	Toxic	Toxic	Toxic	Active	Active	Active	Active	–	–	–	–	–	–
CNC(=O)CNC(=O)C(C)Oc1ccc(Oc2ncc(Cl)cc2Cl)cc1 (stereo not given)	Non-toxic	Non-toxic	Non-toxic	Non-toxic	Active	Active	Active	Active	–	–	–	–	–	–
CC(Oc1ccc(Oc2ncc(Cl)cc2Cl)cc1)C(=O)NOCC(=O)O (stereo not given)	Non-toxic	Non-toxic	Non-toxic	Non-toxic	Active	Active	inactive	Active	–	–	–	–	–	–
CCOC(=O)CNC(=O)C(C)Oc1ccc(Oc2ncc(Cl)cc2Cl)cc1 (stereo not given)	Toxic	Non-toxic	Non-toxic	Non-toxic	Active	Active	Active	Active	–	–	–	–	–	–
CC(Oc1ccc(Oc2ncc(Cl)cc2Cl)cc1)C(=O)NCC(N)=O (stereo not given)	Toxic	Non-toxic	Non-toxic	Non-toxic	Active	Active	Active	Active	–	–	–	–	–	–
CCCCOC(=O)CNC(=O)C(C)Oc1ccc(Oc2ncc(Cl)cc2Cl)cc1 (stereo not given)	Non-toxic	Non-toxic	Non-toxic	Non-toxic	Active	Active	Active	Active	–	–	–	–	–	–
CCCCNC(=O)CNC(=O)C(C)Oc1ccc(Oc2ncc(Cl)cc2Cl)cc1 (stereo not given)	Toxic	Non-toxic	Non-toxic	Non-toxic	Active	Active	Active	Active	–	–	–	–	–	–
CC(Oc1ccc(Oc2ncc(C(F)(F)F)cc2Cl)cc1)C(=O)NOCC(=O)O (stereo not given)	Toxic	Toxic	Toxic	Toxic	Active	Active	Active	Active	–	–	–	–	–	–
CCOC(=O)C(C)Oc1ccc(Oc2ncc(Cl)cc2Cl)cc1 (stereo not given)	Toxic	Toxic	Toxic	Toxic	Active	Active	Active	Active	–	–	–	–	–	–
CC(Oc1ccc(Oc2ncc(Cl)cc2Cl)cc1)C(=O)O (stereo not given) [PYRIPHENOP]	Toxic	Toxic	Toxic	Non-toxic	Active	Active	Active	Active	–	–	–	–	–	–
O=C(O)CONC(=O)COc1ccc(Oc2ncc(Cl)cc2Cl)cc1	Non-toxic	Non-toxic	Non-toxic	Non-toxic	inactive	inactive	inactive	inactive	–	–	–	–	–	–
CONC(=O)C(C)Oc1ccc(Oc2ncc(Cl)cc2Cl)cc1 (stereo not given)	Toxic	Toxic	Toxic	Non-toxic	Active	Active	Active	Active	–	–	–	–	–	–
CC(Oc1ccc(Oc2ccc(Cl)cc2Cl)cc1)C(=O)NOCC(=O)O (stereo not given)	–	–	–	–	–	–	–	–	Non-toxic	inactive	–	–	–	–
CC(Oc1ccc(Oc2cnc3cc(Cl)ccc3n2)cc1)C(=O)O (stereo not given) [QUIZALOFOP]	Toxic	Toxic	Toxic	Toxic	Active	Active	Active	Active	–	–	–	–	–	–
CC(Oc1ccc(Oc2ncc(C(F)(F)F)cc2Cl)cc1)C(=O)O (stereo not given) [HALOXYFOP]	Toxic	Toxic	Toxic	Toxic	Active	Active	Active	Active	–	–	–	–	–	–
CC(Oc1ccc(Oc2cnc3cc(Cl)ccc3n2)cc1)C(=O)NOCC(=O)O (stereo not given)	Toxic	Toxic	Toxic	Toxic	Active	Active	Active	Active	–	–	–	–	–	–
CCCOC(=O)CNC(=O)C(C)Oc1ccc(Oc2ncc(Cl)cc2Cl)cc1 (stereo not given)	Non-toxic	Non-toxic	Non-toxic	Non-toxic	Active	Active	Active	Active	–	–	–	–	–	–
CC(Oc1ccc(Oc2ccc(C(F)(F)F)cn2)cc1)C(=O)NOCC(=O)O (stereo not given)	Toxic	Toxic	Toxic	Toxic	inactive	Active	Active	Active	–	–	–	–	–	–
COC(=O)C(C)Oc1ccc(Oc2ncc(Cl)cc2Cl)cc1 (stereo not given)	Toxic	Toxic	Toxic	Toxic	Active	Active	Active	Active	–	–	–	–	–	–
CC(Oc1ccc(Oc2ncc(Cl)cc2Cl)cc1)C(=O)NO (stereo not given)	Non-toxic	Non-toxic	Non-toxic	Non-toxic	inactive	Active	Active	Active	–	–	–	–	–	–
CC(Oc1ccc(Oc2ncc(Cl)cc2Cl)cc1)C(N)=O (stereo not given)	Non-toxic	Non-toxic	Non-toxic	Non-toxic	inactive	Active	Active	Active	–	–	–	–	–	–
CCCNC(=O)CNC(=O)C(C)Oc1ccc(Oc2ncc(Cl)cc2Cl)cc1 (stereo not given)	Toxic	Non-toxic	Non-toxic	Non-toxic	inactive	Active	Active	Active	–	–	–	–	–	–
CC(Oc1ccc(Oc2ccc(Cl)cc2Cl)cc1)C(=O)O (stereo not given) [DICLOFOP]	Non-toxic	Non-toxic	–	–	–	Active	Active	–	–	–	Non-toxic	Non-toxic	Active	Active
